The text below walks through data of BindingDB's records for doi:10.1016/j.bmc.2005.09.061 (Fujisawa Pharmaceutical, 2006).

A value given as a limit tells only on which side of the number the result lay.

By IC50 is commonly meant the concentration needed to halve the response being measured.

Test [1] deals with Poly [ADP-ribose] polymerase 2 (Mus musculus, UniProt O88554). Briefly: PARP Enzyme Inhibition Assay. Conditions: 25 °C. As to the method:
(§1) To assess the inhibitory activity of novel inhibitors, the PARP enzyme assay was carried out in reaction mixture consisting of activated salmon testes DNA, [adenylate-32P]-NAD, recombinant PARP enzyme, and various concentrations of PARP inhibitors. The reaction mixture was incubated at room temperature for 15 min, and the reaction was terminated by adding trichloroacetic acid. The precipitate was transferred onto GF/B filter. After the filter was washed and dried, the radioactivity was determined by liquid scintillation counting. IC50 values were calculated from the concentration dependence of the inhibition curves by using computer-assisted non-linear regression analyses.

The target of test [2] is Poly [ADP-ribose] polymerase 1 (Homo sapiens, UniProt P09874). Briefly: PARP Enzyme Inhibition Assay. The conditions noted are these: pH 8; 23 °C. The procedure: as §1
Chain of Poly [ADP-ribose] polymerase 1 (P09874 whole entry): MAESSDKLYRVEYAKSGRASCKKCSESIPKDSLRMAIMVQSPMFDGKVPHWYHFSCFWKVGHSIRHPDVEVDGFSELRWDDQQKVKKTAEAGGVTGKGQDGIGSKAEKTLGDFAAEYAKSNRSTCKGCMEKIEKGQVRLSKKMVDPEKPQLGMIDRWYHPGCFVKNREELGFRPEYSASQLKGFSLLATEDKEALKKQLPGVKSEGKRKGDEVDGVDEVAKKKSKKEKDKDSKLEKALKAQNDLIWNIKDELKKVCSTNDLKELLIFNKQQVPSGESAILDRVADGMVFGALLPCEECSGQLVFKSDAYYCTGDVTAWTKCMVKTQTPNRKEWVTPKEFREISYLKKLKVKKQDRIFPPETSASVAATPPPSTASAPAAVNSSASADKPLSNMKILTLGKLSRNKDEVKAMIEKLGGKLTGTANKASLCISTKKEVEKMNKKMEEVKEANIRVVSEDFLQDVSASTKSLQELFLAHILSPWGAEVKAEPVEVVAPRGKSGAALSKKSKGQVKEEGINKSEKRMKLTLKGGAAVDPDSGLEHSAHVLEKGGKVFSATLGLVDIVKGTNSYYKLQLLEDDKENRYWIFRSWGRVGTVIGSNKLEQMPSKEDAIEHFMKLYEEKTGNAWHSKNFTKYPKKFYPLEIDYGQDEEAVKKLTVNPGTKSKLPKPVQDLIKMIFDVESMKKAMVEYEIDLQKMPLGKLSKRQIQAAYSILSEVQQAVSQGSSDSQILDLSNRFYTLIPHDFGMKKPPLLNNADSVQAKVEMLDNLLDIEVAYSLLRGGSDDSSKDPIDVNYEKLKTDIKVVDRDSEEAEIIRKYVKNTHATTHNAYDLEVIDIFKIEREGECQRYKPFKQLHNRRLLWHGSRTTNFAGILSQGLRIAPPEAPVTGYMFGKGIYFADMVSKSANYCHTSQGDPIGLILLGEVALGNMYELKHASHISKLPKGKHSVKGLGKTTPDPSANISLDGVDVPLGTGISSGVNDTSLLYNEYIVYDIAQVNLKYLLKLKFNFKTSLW

Chain of Poly [ADP-ribose] polymerase 2 (O88554 whole entry): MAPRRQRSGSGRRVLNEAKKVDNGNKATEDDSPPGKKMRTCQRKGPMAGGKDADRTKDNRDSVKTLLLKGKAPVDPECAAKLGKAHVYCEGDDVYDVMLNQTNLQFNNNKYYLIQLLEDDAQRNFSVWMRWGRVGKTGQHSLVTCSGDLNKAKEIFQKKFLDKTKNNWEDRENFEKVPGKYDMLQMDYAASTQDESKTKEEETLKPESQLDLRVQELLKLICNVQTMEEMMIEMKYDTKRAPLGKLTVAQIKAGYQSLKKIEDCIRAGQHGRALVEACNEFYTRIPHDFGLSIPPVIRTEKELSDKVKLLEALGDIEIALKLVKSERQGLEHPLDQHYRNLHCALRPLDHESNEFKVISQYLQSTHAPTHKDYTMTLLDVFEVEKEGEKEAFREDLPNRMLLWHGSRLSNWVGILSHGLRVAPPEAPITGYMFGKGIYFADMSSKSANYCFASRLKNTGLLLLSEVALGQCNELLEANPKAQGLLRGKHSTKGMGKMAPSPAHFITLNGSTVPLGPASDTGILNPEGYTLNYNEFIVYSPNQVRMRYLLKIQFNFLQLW

`NC(=O)c1cccc(N)c1`: the IC50 in test [1] is 9810 nM. That is a single-digit micromolar value.

For the compound `O=c1[nH]c(CCCN2CC=C(c3ccccc3)CC2)nc2c(Cl)cccc12`, the IC50 in test [1] came to 610 nM; in test [2], 23 nM. With `N#Cc1ccc(C2=CCN(CCCc3nc4c(Cl)cccc4c(=O)[nH]3)CC2)cc1`, the IC50 was 87 nM in test [1] and 3 nM in test [2].

In the case of `Cc1cccc2c(=O)[nH]c(CCCN3CC=C(c4ccc(F)cc4)CC3)nc12`, the IC50 was found to be 167 nM in test [1] and 16 nM in test [2].

As for `O=c1[nH]c2ccc(CCCN3CC=C(c4ccccc4)CC3)cc2c2ccccc12`, the concentration for half-maximal inhibition (IC50) in test [1] amounted to 84 nM; in test [2] it was 82 nM. On the same counts, the results for `N#Cc1ccc(-c2cnc3cccc(C(N)=O)c3n2)cc1` are 8 nM and 101 nM.

For `NC(=O)c1cccc2ncc(-c3ccc(C(F)(F)F)cc3)nc12`, the 50% inhibitory concentration (IC50) in test [1] is 11 nM; in test [2] it was 118 nM.

With `COc1ccc(-c2cnc3cccc(C(N)=O)c3n2)cc1`, the figures for the 50% inhibitory concentration (IC50) in test [1] and in test [2] were 8 nM and 71 nM, respectively. Taken in the same sequence, the figures for `O=c1[nH]c(=O)n(CCCCN2CC=C(c3ccccc3)CC2)c2ccccc12` [1-[4-(4-phenyl-1,2,3,6-tetrahydropyridin-1-yl)butyl]-1,2,3,4-tetrahydroquinazoline-2,4-dione] were 70 nM and 120 nM. Taken in the same sequence, the figures for `O=c1[nH]c(CCCN2CC=C(c3ccccc3)CC2)nc2ccccc12` [2-[3-(4-phenyl-1,2,3,6-tetrahydropyridin-1-yl)propyl]-3,4-dihydroquinazolin-4-one] were 608 nM and 21 nM. For the compound `O=c1[nH]c(CCCN2CCN(c3ccc(Cl)cc3)CC2)nc2ccccc12` [2-{3-[4-(4-chlorophenyl)piperazin-1-yl]propyl}-3,4-dihydroquinazolin-4-one], the 50% inhibitory concentration (IC50) in test [1] turned out to be 300 nM; in test [2], 11 nM. On the same counts, the results for `NC(=O)c1cccc2ncc(-c3ccc(N)cc3)nc12` [3-(4-aminophenyl)quinoxaline-5-carboxamide] are 9 nM and 87 nM. As to `NC(=O)c1cccc2ncc(-c3ccc(Cl)cc3)nc12` [3-(4-chlorophenyl)quinoxaline-5-carboxamide], the 50% inhibitory concentration (IC50) in test [1] is 7 nM; in test [2], 33 nM.

Take `NC(=O)c1cccc2ncc(-c3ccccc3)nc12` [3-phenylquinoxaline-5-carboxamide]: the IC50 in test [1] was found to be 14 nM; in test [2] it was 131 nM. On the same counts, the results for `O=c1[nH]nc(CCCCN2CC=C(c3ccccc3)CC2)c2ccccc12` [4-[4-(4-Phenyl-3,6-dihydro-2H-pyridin-1-yl)-butyl]-2H-phthalazin-1-one] are 90 nM and 120 nM. On the same counts, the results for `O=c1[nH]nc(CCCCN2CC=C(c3ccc(F)cc3)CC2)c2ccccc12` [4-{4-[4-(4-fluorophenyl)-1,2,3,6-tetrahydropyridin-1-yl]butyl}-1,2-dihydrophthalazin-1-one] are 84 nM and 49 nM.

In the case of `O=c1[nH]c(CCCN2CC=C(c3ccccc3)CC2)nc2cccc(Cl)c12` [5-Chloro-2-[3-(4-phenyl-3,6-dihydro-2H-pyridin-1-yl)-propyl]-3H-quinazolin-4-one], the 50% inhibitory concentration (IC50) stood at 630 nM in test [1] and 68 nM in test [2]. `Cc1nc2cccc(Cl)c2c(=O)[nH]1` [5-chloro-2-methyl-3,4-dihydroquinazolin-4-one] came in with a 50% inhibitory concentration (IC50) in test [1] of 660 nM. Take `O=c1[nH]c(=O)n(CCCCC2CC=C(c3ccccc3)CC2)c2cccc(F)c12` (stereo unspecified) [5-fluoro-1-[4-(4-phenylcyclohex-3-en-1-yl)butyl]-1,2,3,4-tetrahydroquinazoline-2,4-dione]: in test [2], the half-maximal inhibitory concentration (IC50) is over 1000 nM. The compound `O=c1[nH]c(CCCN2CC=C(c3ccc(F)cc3)CC2)nc2c(Cl)cccc12` [8-chloro-2-{3-[4-(4-fluorophenyl)-1,2,3,6-tetrahydropyridin-1-yl]propyl}-3,4-dihydroquinazolin-4-one] gave a 50% inhibitory concentration (IC50) in test [1] of 500 nM.
